# According to publication PMC8449414, “Rational design of ASCT2 inhibitors using an integrated experimental-computational approach” (Proceedings of the National Academy of Sciences of the …, 2021):
# Target: T1, rASCT2 (Rattus norvegicus, UniProt D3ZJ25)
# T1 construct: expressed in transfected cells; host or cells: HEK293 (ATCC CRL-11268), transient transfection
# T1 sequence (D3ZJ25 1-555): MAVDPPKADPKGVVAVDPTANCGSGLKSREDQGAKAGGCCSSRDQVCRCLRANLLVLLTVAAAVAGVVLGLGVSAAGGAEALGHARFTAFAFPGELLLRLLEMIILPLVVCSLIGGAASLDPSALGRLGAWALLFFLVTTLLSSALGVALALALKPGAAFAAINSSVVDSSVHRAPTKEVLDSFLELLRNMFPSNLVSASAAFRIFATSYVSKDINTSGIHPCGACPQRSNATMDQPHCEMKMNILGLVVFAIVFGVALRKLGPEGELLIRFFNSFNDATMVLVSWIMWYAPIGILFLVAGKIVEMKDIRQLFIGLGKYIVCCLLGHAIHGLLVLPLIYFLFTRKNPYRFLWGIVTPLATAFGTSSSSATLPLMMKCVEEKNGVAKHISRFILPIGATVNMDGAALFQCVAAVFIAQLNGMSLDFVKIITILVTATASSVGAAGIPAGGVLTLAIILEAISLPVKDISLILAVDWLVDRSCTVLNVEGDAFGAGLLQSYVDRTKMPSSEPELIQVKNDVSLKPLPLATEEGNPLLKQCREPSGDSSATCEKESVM
# Assay: Inhibitor dissociation kinetics by ligand displacement with alanine (rapid solution exchange)
# Assay type: cell-based
# Description: Fig. 2. […] (A) Electrophysiological recordings obtained after application of alanine (red trace) and increasing concentrations of Lc-BPE (black traces). The times of application of alanine or Lc-BPE are shown by a gray bar (top). (B and C) Lc-BPE inhibitor dose–response relationships for rASCT2 and hASCT2, respectively. […] Currents were normalized to the current recorded after application of 10 µM inhibitor concentration. (D) Inhibition of glutamine uptake (5 µM external concentration) in the presence of varying concentration of Lc-BPE and 5 µM glutamine measured in proteoliposomes reconstituted with purified hASCT2. […] Errors bars represent SEM from at least two biologically independent measurements. (E) Current recorded after rapid solution exchange from extracellular buffer (control, gray bar, black trace) to a solution containing buffer + 5 mM alanine (white bar). For the red trace, the cell was preincubated with 10 µM Lc-BPE (red bar, red trace) followed by rapid application of 5 mM alanine. All current recordings were performed at 0 mV in the presence of 130 mM NaSCN internal and 140 mM NaCl external (homoexchange) solutions. […]
# To test this, we measured the dissociation kinetics of Lc-BPE using a ligand displacement approach. First, rASCT2-expressing cells were preincubated with a saturating solution of Lc-BPE (10 µM), and subsequently the inhibitor was displaced using a supersaturating concentration of the substrate L-alanine (5 mM) (Fig. 2 E and F).
# [1] = preincubation with 10 µM inhibitor, displaced with 5 mM alanine
structure (smiles),measurement,setting,value
"O=C(O[C@@H]1CN[C@H](C(=O)O)C1)c1ccc(-c2ccccc2)cc1 [Lc-BPE, L-cis hydroxyproline biphenyl ester]",slowing of activation of the anion current by alanine after preincubation,"10 µM inhibitor preincubation, 5 mM alanine",more than sixfold
same,"rate constant kobs, mean (single-exponential fit)","preapplied 10 µM inhibitor followed by 5 mM alanine, 0 mV",4.9 ± 0.2 s⁻¹
same,rate constant for dissociation,[1],2.16 s⁻¹
same,residence time in the rASCT2 binding site,[1],~500 ms
